Values after ≈ are worked out from the molar mass of the structure shown.
Legend:
[1] = test system: Trichophyton mentagrophytes; test: Antimycotic activity in vitro (series dilution test), Trichophyton mentagrophytes; assay type: cell-based; details: nutrient medium, 28° C, 24 to 96 hours, read-out: Minimum inhibitory concentration (MIC), Trichophyton mentagrophytes
[2] = test system: Candida albicans; test: Antimycotic activity in vitro (series dilution test), Candida albicans; assay type: cell-based; details: nutrient medium, 28° C, 24 to 96 hours, read-out: Minimum inhibitory concentration (MIC), Candida albicans
[3] = test system: Penicillium commune; test: Antimycotic activity in vitro (series dilution test), Penicillium commune; assay type: cell-based; details: nutrient medium, 28° C, 24 to 96 hours, read-out: Minimum inhibitory concentration (MIC), Penicillium commune
[4] = test system: Aspergillus niger; test: Antimycotic activity in vitro (series dilution test), Aspergillus niger; assay type: cell-based; details: nutrient medium, 28° C, 24 to 96 hours, read-out: Minimum inhibitory concentration (MIC), Aspergillus niger
[5] = test system: Trichophyton mentagrophytes; test: Topical application against trichophytosis in guinea pigs; assay type: in vivo; details: 1% strength solution applied locally for 11 to 14 days
Source text: a. Topical application against trichophytosis in guinea pigs.
A 1% strength solution of the active compounds in a dimethylsulphoxide/glycerol/water mixture (1:3:6) or in polyethylene glycol 400 was applied locally for 11 to 14 days after the trichophytosis (pathogen: Trichophyton mentagrophytes) had been produced experimentally.

[6] = test system: Trichophyton quinckeanum; test: Oral administration against Quinckeanum trichophytosis in white mice; assay type: in vivo; details: 100 mg/kg orally twice daily up to the eighth day of the infection
Experimental: b. Oral administration against Quinckeanum trichophytosis in white mice By using doses of 100 mg/kg of body weight, administered orally twice daily up to the eighth day of the infection, it was possible to suppress the development of the Quinckeanum infection in mice.

Row | SMILES | MIC [1] | MIC [2] | MIC [3] | MIC [4] | Action (topical, trichophytosis in guinea pigs) [5] | Action against Trichophyton quinckeanum [6]
1 | CC(C)(C)C(O)C(Cn1ccnc1)Oc1ccc(Cl)cc1 (stereo not shown) [Example 1, 1-(imidazol-1-yl)-2-(4-chlorophenoxy)-3-hydroxy-4,4-dimethyl-pentane] | 32 µg/mL (≈ 104 µM) | 64 µg/mL (≈ 207 µM) | > 64 µg/mL | – | – | –
2 | CC(C)(C)C(O)(Cc1ccccc1)C(Cn1ccnc1)Oc1ccc(Cl)cc1 (stereo not shown) [Example 2, 1-(imidazol-1-yl)-2-(4-chlorophenoxy)-3-benzyl-3-hydroxy-4,4-dimethyl-pentane] | < 1 µg/mL | 64 µg/mL (≈ 160 µM) | > 64 µg/mL | > 64 µg/mL | – | –
3 | CC(C)(C)C(O)C(Cn1ccnc1)Oc1ccccc1Cl (stereo not shown) [Example 3] | 32 µg/mL (≈ 104 µM) | 64 µg/mL (≈ 207 µM) | > 64 µg/mL | – | – | –
4 | CC(C)(C)C(O)C(Cn1ccnc1)Oc1cccc(Cl)c1 (stereo not shown) [Example 4] | > 64 µg/mL | 64 µg/mL (≈ 207 µM) | > 64 µg/mL | – | – | –
5 | CC(C)(C)C(O)C(Cn1ccnc1)Oc1ccc(Cl)cc1Cl (stereo not shown) [Example 5] | 4 µg/mL (≈ 11.7 µM) | 64 µg/mL (≈ 186 µM) | > 64 µg/mL | 64 µg/mL (≈ 186 µM) | – | –
6 | CC(C)(C)C(O)C(Cn1ccnc1)Oc1ccc(F)cc1 (stereo not shown) [Example 6] | 64 µg/mL (≈ 219 µM) | 64 µg/mL (≈ 219 µM) | > 64 µg/mL | – | – | –
7 | Cc1cc(Cl)ccc1OC(Cn1ccnc1)C(O)C(C)(C)C (stereo not shown) [Example 7] | 4 µg/mL (≈ 12.4 µM) | 64 µg/mL (≈ 198 µM) | > 64 µg/mL | > 64 µg/mL | xx (healing of the infection inside 4-6 days after infection.) | xx (fewer than 30% of the animals showed symptoms of the infection.)
8 | CC(C)(C)C(O)C(Cn1ccnc1)Oc1ccccc1 (stereo not shown) [Example 8] | 32 µg/mL (≈ 117 µM) | 64 µg/mL (≈ 233 µM) | > 64 µg/mL | – | – | –
9 | CC(C)(C)C(C)(O)C(Cn1ccnc1)Oc1ccc(Cl)cc1 (stereo not shown) [Example 9] | 8 µg/mL (≈ 24.8 µM) | 64 µg/mL (≈ 198 µM) | > 64 µg/mL | – | xx (healing of the infection inside 4-6 days after infection.) | xx (fewer than 30% of the animals showed symptoms of the infection.)
